From patent US11345756B2, “CCR3 inhibition for ocular angiogenesis and macular degeneration” (University of Kentucky Research Foundation, priority 2006, dated 2022) come the findings set out here.

The subject of this assay is CNV (choroidal neovascularization). Put plainly: Laser-induced CNV volume, confocal evaluation of isolectin B4 stained RPE-choroid flatmounts. In kind it is in vivo. Particulars: C57BL/6J mice, laser injury, blockade of CCR3 ligand by neutralizing antibody injected into the vitreous humor; compared to control antibodies, all Ps<0.001. As for the experimental part: Laser photocoagulation (532 nm, 200 mW, 100 ms, 75 μm) (OCULIGHT™ GL, Index Corporation) was performed (volume studies: 3/eye; protein analyses/flow cytometry: 12/eye) on both eyes of each animal to induce CNV (choroidal neovascularization). CNV volumes were measured by scanning laser confocal microscope (TCS SP, Leica) with 0.5% FITC-Griffonia simplicifolia Isolectin B4 (Vector Laboratories). CNV was induced by laser injury in C57BL/6J and Ccr3^−/− mice and volumes measured 7 days later by confocal evaluation of Griffonia simplicifolia Isolectin B4 staining of RPE-choroid flatmounts. Neutralizing antibodies (Ab) against CCR3, eotaxin (CCL-11), eotaxin-2 (CCL-24), RANTES, MCP-3 or control goat IgG or rat IgG2a were injected into the vitreous humor following injury.
Because the probability of each laser lesion developing CNV is influenced by the group to which it belongs, the mouse, the eye, and the laser spot, the mean lesion volumes were compared using a linear mixed model with a split plot repeated measures design. The whole plot factor was the genetic group to which the animal belonged while the split plot factor was the eye. Statistical significance was determined at the 0.05 level. Post hoc comparison of means was constructed with a Bonferroni adjustment for multiple comparisons.

In the case of eotaxin, the “suppression of CNV” value amounted to 45%.
